Assay results: US9199965B2, “Benzoimidazole derivatives and pharmaceutical composition comprising the same” (Daewoong Co., Ltd., priority 2005, dated 2015)

Legend:
[1] = target: T1, rat TRPV1 (Rattus norvegicus, UniProt O35433); experiment: Assay for inhibitory activity against VR1 patch clamp activity (capsaicin current, inside-out patch); format: cell-based; details: 1 μM compound with 10 μM capsaicin; rat TRPV1-transfected HEK293, inside-out patch; relative to capsaicin current before compound
T1 construct: expressed in transfected cells; host or cells: HEK293
Protocol: Each of the compounds synthesized in the examples were dissolved in dimethyl sulfoxide (DMSO) at a concentration of 10 mM. For use in the assay for inhibitory activity against patch clamp activity, the solutions were diluted to a concentration of 1 μM with the same physiological saline as in the pipette solution of Table 1, below.
2) Assay for Inhibitory Activity Against VR1 Patch Clamp Activity
In this experiment, changes in VR1 activity were recorded in current using an electrophysiological technique.
For use in this experiment, a rat TRPV1 cDNA was transfected into a subcultured HEK293 strain with the aid of lipofectamin.
The rat TRPV1 gene-transfected HEK293 cells were detached from the cell culture dishes with trypsin and distributed on a patch clamp recording chamber.
A cover glass slip on the bottom of the patch clamp recording chamber was treated for 15 min or longer with a […] poly-L-lysine solution so that the HEK cells would readily adhere thereto. Cellular membranes were ruptured at room temperature (˜25° C.) from randomly selected HEK cells to perform an inside-out patch clamp technique. 10 μM of capsaicin was fed into the chamber (cytoplasmic side) to activate a capsaicin current through the VR1. When the capsaicin current reached a stable stage, each compound was added along with 10 μM of capsaicin to record the inhibitory activity of the compounds with regard to the current. The inhibition was expressed as percentages.
Detected current was amplified using a Digidata 1200B A/D converter and an Axopatch 1D amplifier (Axon instruments Inc.), and the data were recorded and analyzed with the aid of a computer. The inhibitory activity of each compound was expressed as a percentage relative to the capsaicin current immediately before the administration of each compound.

[2] = target: T2, human vanilloid-1 (hVR1) (Homo sapiens, UniProt Q8NER1); experiment: Calcium influx of vanilloid receptor in hVR1-HEK293 cells (capsaicin-induced, Fluo-3/AM); format: cell-based; details: 1 μM capsaicin-induced intracellular calcium influx, read-out: Inhibitory Activity IC50
T2 construct: expressed in transfected cells; host or cells: HEK293 Tet-on (hVR1-HEK293), doxycycline-induced
Protocol: Experiments for calcium influx were performed to measure the activity of the compounds as antagonists.
The cell strain hVR1-HEK293 is the human embryonic kidney (HEK) 293 Tet-on cell transfected with a human vanilloid-1 gene (pTRE2hyg-hVR1, 7.8 kb), which is capable of controlling the expression of VR1 according to the administration of deoxycycline, a tetracycline derivative analog. In a medium supplemented with deoxycycline two days before calcium influx experiments, the cell strain was cultured to induce the expression of VR1. After being grown to a confluency of about 80% in T75 flasks, hVR1-HEK293 was detached from the flask using trypsin. Cells harvested by centrifugation were suspended in a medium supplemented with 1 μg/mL of deoxycycline and diluted to a density of 2-4×10^5 cells/mL, after which a 100 μL aliquot of the cell suspension was added to each well of 96 well black plates. Before the measurement of calcium influx, the cells were incubated for two days at 37° C. in a 5% CO2 incubator.
For use in calcium influx experiments, each compound was dissolved in dimethyl sulfoxide (DMSO).
To measure an intracellular calcium influx, cells were incubated at 37° C. for 90 min in a medium containing the calcium indicator Fluo-3/AM so as to allow the fluorescent dye to penetrate into the cells. Then, the cells were washed three times with D-PBS (Dulbecco's phosphate buffered saline) containing 10 mM HEPES to remove the fluorescent dye which remained outside. 193 μL aliquot of D-PBS was added to each well, followed by the addition of various concentrations of compounds thereto. In order to measure the antagonistic activity of the compounds, calcium influx was induced by treatment with 1 μM capsaicin. The inhibitory effect of each compound on 1 μM capsaicin-induced intracellular calcium influx according to compound concentration was measured using a fluorescent analyzer and the data thus obtained were analyzed on the basis of the Hill's equation.

T1 sequence (O35433 whole entry): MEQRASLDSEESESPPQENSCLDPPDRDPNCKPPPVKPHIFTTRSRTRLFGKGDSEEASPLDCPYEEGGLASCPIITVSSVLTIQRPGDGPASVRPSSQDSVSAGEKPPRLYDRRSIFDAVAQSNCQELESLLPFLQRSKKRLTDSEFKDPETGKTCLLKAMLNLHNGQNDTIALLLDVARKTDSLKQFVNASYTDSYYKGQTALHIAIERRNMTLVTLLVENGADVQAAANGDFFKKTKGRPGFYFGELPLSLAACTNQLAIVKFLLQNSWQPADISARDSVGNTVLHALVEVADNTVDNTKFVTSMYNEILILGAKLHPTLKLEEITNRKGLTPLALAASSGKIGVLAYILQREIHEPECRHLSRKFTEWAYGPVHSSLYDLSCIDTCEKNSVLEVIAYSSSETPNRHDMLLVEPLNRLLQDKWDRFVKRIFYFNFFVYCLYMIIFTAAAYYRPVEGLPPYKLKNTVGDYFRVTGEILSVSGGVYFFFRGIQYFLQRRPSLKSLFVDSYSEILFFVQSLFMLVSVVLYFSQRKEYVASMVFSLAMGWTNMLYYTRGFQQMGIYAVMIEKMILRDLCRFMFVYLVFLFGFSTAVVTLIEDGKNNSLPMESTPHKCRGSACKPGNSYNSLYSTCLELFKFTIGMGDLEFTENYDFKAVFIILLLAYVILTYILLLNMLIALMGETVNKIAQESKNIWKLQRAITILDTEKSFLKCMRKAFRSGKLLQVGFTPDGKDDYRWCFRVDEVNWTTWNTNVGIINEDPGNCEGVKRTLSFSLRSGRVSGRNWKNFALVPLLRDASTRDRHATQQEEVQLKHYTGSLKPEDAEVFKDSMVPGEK
T2 sequence (Q8NER1 whole entry): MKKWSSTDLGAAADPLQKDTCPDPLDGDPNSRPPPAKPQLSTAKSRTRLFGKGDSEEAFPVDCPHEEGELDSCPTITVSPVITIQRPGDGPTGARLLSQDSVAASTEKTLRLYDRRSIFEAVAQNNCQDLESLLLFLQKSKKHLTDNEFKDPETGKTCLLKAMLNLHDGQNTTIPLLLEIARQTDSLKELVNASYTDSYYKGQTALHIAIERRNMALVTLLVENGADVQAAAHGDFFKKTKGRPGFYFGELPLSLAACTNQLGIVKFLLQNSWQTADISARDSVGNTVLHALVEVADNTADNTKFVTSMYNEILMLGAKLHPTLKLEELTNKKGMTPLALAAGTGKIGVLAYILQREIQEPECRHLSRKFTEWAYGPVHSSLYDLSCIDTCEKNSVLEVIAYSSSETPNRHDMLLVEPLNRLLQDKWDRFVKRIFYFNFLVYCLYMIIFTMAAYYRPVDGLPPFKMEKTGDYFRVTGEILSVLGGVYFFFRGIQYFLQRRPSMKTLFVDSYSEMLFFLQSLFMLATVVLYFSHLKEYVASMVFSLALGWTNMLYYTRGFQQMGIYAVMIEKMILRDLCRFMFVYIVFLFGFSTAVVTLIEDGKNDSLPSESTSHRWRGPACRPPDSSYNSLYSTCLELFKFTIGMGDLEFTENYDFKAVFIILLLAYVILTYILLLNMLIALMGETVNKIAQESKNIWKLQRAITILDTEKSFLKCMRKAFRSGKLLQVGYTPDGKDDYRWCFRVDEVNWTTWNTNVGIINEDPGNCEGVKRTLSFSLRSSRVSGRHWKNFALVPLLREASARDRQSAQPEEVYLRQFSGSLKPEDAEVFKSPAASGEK

inhibition at 1 µM [1]	IC50 [2]	SMILES
	46 nM	Clc1cc2nc(-c3ccc(-c4ccccn4)cn3)[nH]c2cc1Cl [Compound 173, 5,6-dichloro-2-(5-(pyridin-2-yl)pyridin-2-yl)-1H-benzoimidazole]
	282 nM	CC(C)(C)c1ccc2nc(-c3ccc(-c4cccc5ccccc45)nc3)[nH]c2c1 [Compound 174, 6-tert-butyl-2-(6-naphthalen-1-ylpyridin-3-yl)-1H-benzoimidazole]
	229 nM	FC(F)(F)c1ccc2nc(-c3ccc(-c4cccc5ccccc45)nc3)[nH]c2c1 [Compound 176, 6-(trifluoromethyl)-2-(6-(naphthalen-1-yl)pyridin-3-yl)-1H-benzoimidazole]
	151 nM	Clc1ccc2nc(-c3ccc(-c4cccc5ccccc45)nc3)[nH]c2c1 [Compound 177, 6-chloro-2-(6-(naphthalen-1-yl)pyridin-3-yl)-1H-benzoimidazole]
20%		FC(F)(F)c1ccc2nc(-c3ccc(-n4cccc4)cc3)[nH]c2c1 [Compound 178, 2-(4-pyrrol-1-ylphenyl]-6-trifluoromethyl-1H-benzoimidazole]
100%		c1cnc2[nH]c(-c3ccc(-n4cccc4)cc3)nc2c1 [Compound 179, 2-(4-pyrrol-1-ylphenyl)-3H-imidazo[4,5-b]pyridine]
17%		FC(F)(F)c1ccc2nc(-c3ccc(-c4ccccc4)cc3)[nH]c2c1 [Compound 183, 2-biphenyl-4-yl-6-trifluoromethyl-1H-benzoimidazole]
90%		FC(F)(F)c1ccc2nc(-c3ccc(Oc4ccccc4)cc3)[nH]c2c1 [Compound 189, 2-(4-phenoxyphenyl-6-trifluoromethyl)-1H-benzoimidazole]
60%		Clc1ccc2nc(-c3ccc(Oc4ccccc4)cc3)[nH]c2c1 [Compound 191, 6-chloro-2-(4-phenoxyphenyl)-1H-benzoimidazole]
50%		Fc1ccc2nc(-c3ccc(Oc4ccccc4)cc3)[nH]c2c1 [Compound 193, 6-fluoro-2-(4-phenoxyphenyl)-1H-benzoimidazole]
30%		COc1ccc2nc(-c3ccc(Oc4ccccc4)cc3)[nH]c2c1 [Compound 194, 6-methoxy-2-(4-phenoxyphenyl)-1H-benzoimidazole]
	1400 nM	FC(F)(F)c1ccc2nc(-c3cccc(Cn4cc(Cl)cn4)c3)[nH]c2c1 [Compound 195, 2-[3-(4-chloropyrazol-1-ylmethyl)phenyl]-6-trifluoromethyl-1H-benzoimidazole]

Continued, compound first:

SMILES	inhibition at 1 µM [1]	IC50 [2]
Clc1ccc2nc(-c3ccc(-c4ncccc4Cl)cc3)[nH]c2c1 [Compound 2, 6-chloro-2-[4-(3-chloropyridin-2-yl)phenyl]-1H-benzoimidazole]	45%	8570 nM
COc1ccc2nc(-c3ccc(-c4ncccc4Cl)cc3)[nH]c2c1 [Compound 5, 2-[4-(3-chloropyridin-2-yl)phenyl]-6-methoxy-1H-benzoimidazole]	10%	6040 nM
FC(F)(F)c1cnc2nc(-c3ccc(-c4ncccc4Cl)cc3)[nH]c2c1 [Compound 8, 2-[4-(3-chloropyridin-2-yl)phenyl]-6-trifluoromethyl-1H-imidazo[4,5-b]pyridine]	41%	31 nM
Cc1ccc2nc(-c3ccc(-c4ncccc4Cl)cc3)[nH]c2c1C [Compound 10, 2-[4-(3-chloropyridin-2-yl)phenyl]-6,7-dimethyl-1H-benzoimidazole]	80%	114 nM
CC(C)(C)c1ccc2nc(-c3ccc(-c4ncccc4C(F)(F)F)cc3)[nH]c2c1 [Compound 30, 6-tert-butyl-2-[4-(3-trifluoromethylpyridin-2-yl)phenyl]-1H-benzoimidazole]	96%	23 nM
FC(F)(F)c1cccnc1-c1ccc(-c2nc3ccc(Cl)cc3[nH]2)cc1 [Compound 32, 6-chloro-2-[4-(3-trifluoromethylpyridin-2-yl)phenyl]-1H-benzoimidazole]	78%	13 nM
FC(F)(F)c1cnc2nc(-c3ccc(-c4ncccc4C(F)(F)F)cc3)[nH]c2c1 [Compound 34, 6-trifluoromethyl-2-[4-(3-trifluoromethylpyridin-2-yl)phenyl]-1H-imidazo[4,5-b]pyridine]	16%	26 nM
CC(C)(C)c1ccc2nc(-c3ccc(-c4ncc(Cl)cc4Cl)cc3F)[nH]c2c1 [Compound 70, 6-tert-butyl-2-[4-(3,5-dichloropyridin-2-yl)-2-fluorophenyl]-1H-benzoimidazole]	45%	
FC(F)(F)c1ccc2nc(-c3ccc(-c4ncccc4C(F)(F)F)c4ccccc34)[nH]c2c1 [Compound 113, 6-trifluoromethyl-2-[4-(3-trifluoromethylpyridin-2-yl)naphthalen-1-yl]-1H-benzoimidazole]		363 nM
FC(F)(F)c1cc(C(F)(F)F)c2nc(-c3ccc(-c4ccccn4)c4ccccc34)[nH]c2c1 [Compound 115, 2-(4-pyridin-2-ylnaphthalen-1-yl)-4,6-bistrifluoromethyl-1H-benzoimidazole]	71%	
CC(C)(C)c1ccc2nc(-c3ccc(-c4ncccc4Cl)c(Cl)c3)[nH]c2c1 [Compound 116, 6-tert-butyl-2-[3-chloro-4-(3-chloropyridin-2-yl)phenyl]-1H-benzoimidazole]	30%	
CC(C)(C)c1ccc2nc(-c3ccc(-c4ncc(C(F)(F)F)cc4Cl)c(Cl)c3)[nH]c2c1 [Compound 121, 6-tert-butyl-2-[3-chloro-4-(3-chloro-5-trifluoromethylpyridin-2-yl)phenyl]-1H-benzoimidazole]	76%	
Clc1cc2nc(-c3ccc(-c4ccccn4)c(Cl)c3)[nH]c2cc1Cl [Compound 129, 5,6-dichloro-2-(3-chloro-4-(pyridin-2-yl)phenyl)-1H-benzoimidazole]		3960 nM
Clc1cc(-c2nc3ccc(Br)cc3[nH]2)ccc1-c1ccccn1 [Compound 130, 6-bromo-2-(3-chloro-4-(pyridin-2-yl)phenyl)-1H-benzoimidazole]		436 nM
FC(F)(F)c1ccc2nc(-c3ccc(-c4ncccc4Cl)cn3)[nH]c2c1 [Compound 136, 3-chloro-6′-(6-trifluoromethyl-1H-benzoimidazole-2-yl)-[2,3′]bipyridine]		952 nM
Clc1ccc2nc(-c3ccc(-c4ncccc4Cl)cn3)[nH]c2c1 [Compound 137, 3-chloro-6′-(6-chloro-1H-benzoimidazole-2-yl)-[2,3′]bipyridine]		569 nM
FC(F)(F)c1cc(Br)c2nc(-c3ccc(-c4ncccc4Cl)cn3)[nH]c2c1 [Compound 140, 4-bromo-2-(5-(3-chloropyridin-2-yl)pyridin-2-yl)-6-(trifluoromethyl)-1H-benzoimidazole]		66 nM
Clc1cccnc1-c1ccc(-c2nc3ccc(Br)cc3[nH]2)nc1 [Compound 141, 6-bromo-2-(5-(3-chloropyridin-2-yl)pyridin-2-yl)-1H-benzoimidazole]		2400 nM
CC(C)(C)c1ccc2nc(-c3ccc(-c4ncccc4C(F)(F)F)cn3)[nH]c2c1 [Compound 159, 6′-(6-tert-butyl-1H-benzoimidazole-2-yl)-3-trifluoromethyl-[2,3′]bipyridine]		3950 nM
FC(F)(F)c1cccnc1-c1ccc(-c2nc3ccc(Cl)cc3[nH]2)nc1 [Compound 160, 6′-(6-chloro-1H-benzoimidazole-2-yl)-3-trifluoromethyl-[2,3′]bipyridine]		258 nM
Fc1ccc2nc(-c3ccc(-c4ncccc4C(F)(F)F)cn3)[nH]c2c1 [Compound 166, 6-fluoro-2-(5-(3-(trifluoromethyl)pyridin-2-yl)pyridin-2-yl)-1H-benzoimidazole]		3900 nM
